Assay results from article PMC11050823, “The Cyclic Imine Core Common to the Marine Macrocyclic Toxins Is Sufficient to Dictate Nicotinic Acetylcholine Receptor Antagonism” (Marine Drugs, 2024).
“Also recorded” adds a separate entry of the source. Where two headings read alike, the source gives them in different places. Marks after values point to notes of the source that are not given here.

Assays:
[1] = biological target: Torpedo muscle-type α1_2βγδ nAChR (Torpedo marmorata, UniProt P02711+Q6S3H8+Q6S3H9); test: Manual TEVC recording of ACh-evoked currents in Xenopus oocytes micro-transplanted with Torpedo electrocyte membranes; format: cell-based; details: for Hill Slope: concentration-inhibition curve, ACh 25 µM
From the text: (§1) Functional analysis of the (±)-4 racemate and (+)-4 R and (−)-4 S enantiomers used either manual or automated two-electrode voltage-clamp (TEVC) recordings on Xenopus laevis oocytes at −60 mV holding membrane potential. The oocytes were either micro-transplanted with Torpedo α1_2βγδ-enriched electrocyte membranes or transfected with human α7 or α4β2-encoding cDNAs. When applied alone (see Experimental Procedures), none of the three spiroimines induced nAChR channel opening, thereby discarding any agonistic activity toward these nAChR subtypes. Instead, when applied together with ACh at its EC50 concentration for each nAChR subtype, all three spiroimines clearly behaved as nicotinic antagonists, whose potency depended on the receptor subtype examined (Figure 2; Table 1).
(§2) The sources for live animals and biological materials, the procedures for nAChR microtransplantation and expression in oocytes, and the procedures for manual (α1_2βγδ nAChR) and automated (α7 and α4β2 nAChRs) TEVC recording are detailed in Appendix C. […] Then, the oocyte was perfused for 45 s with the tested spiroimine at a given concentration, immediately followed by the co-application of ACh and the spiroimine at the same concentrations and times as indicated above. The oocyte was washed with Ringer’s solution, and then recovery of the ACh-evoked current was recorded.
(§3) The concentration–inhibition curves were analyzed as previously detailed using the equation I = Imax [L]^nH/(EC50^nH + [L]^nH) (Equation (1)), where I is the measured agonist-evoked current, [L] is the agonist concentration, EC50 is the agonist concentration that evoked half the maximal current (I^max), and nH is the Hill coefficient. For antagonist inhibition, current (I) values were normalized to the I^max value recorded from the same oocyte to yield the fractional (%) response data. IC50 values were established from the concentration–response curves by fitting to the equation F = 1/[1 + ([X]/IC50)^nH] (Equation (2)), where F is the fractional response obtained in the presence of the inhibitor at concentration [X], and IC50 is the inhibitor concentration reducing the ACh-evoked amplitude by half. Data analysis was performed without constraints as Log[spiroimine] versus response (three parameters), with a Hill slope ~1. Statistical significance of differences between the control and test values was assessed using either the two-tailed Student’s “t” test or the Kolmogorov–Smirnov two-sample test and p < 0.05.
(§4) Torpedo membranes containing α1_2βγδ nAChR were microtransplanted into the oocyte cytoplasm by microinjecting a membrane suspension (50 nL at 2.5 µg/µL, i.e., 125 ng total protein, in 5 mM glycine) with an electronic micro-injector (Nanoliter2000 Micro4 Controller, World Precision Instruments Inc., Hertfordshire, UK) mounted on a microscope. Human α7 and α4β2 nAChRs were expressed through microinjection, into the oocyte nucleus, of α7 mRNA and of a 1:1 (w/w) mixture of α4 and β2 cDNAs (a ratio favoring expression of the α4_3β2_2 population over the α4_2β2_3 population) (50 nL at 1 µg/µL) in a pRc/CMV expression vector (Invitrogen). Oocytes were maintained at 18 °C and TEVC recordings were performed 1–4 days later in a room with controlled temperature (20 °C).
(§5) Manual TEVC on α1_2βγδ nAChR oocytes was carried out using an OC-725B amplifier (Warner Instrument Corp., Hamden, CT, USA). Voltage and current borosilicate glass microelectrodes were filled with KCl 3 M and had 0.5–1.5 MΩ tip resistances. For data acquisition and recording, a pCLAMP-9/Digidata-1322A system (Molecular Devices, San Jose, CA, USA) was used. The oocyte recording chamber of 300 μL was superfused at a high rate (8–12 mL.min^−1) with a modified oocyte Ringer’s solution made of HEPES 5 mM pH 7.4, NaCl 100 mM, KCl 2.8 mM, and BaCl2 0.3 mM, where BaCl2 substitution to the original CaCl2 prevents secondary activation of a Ca^2+-dependent Cl^− current. […]

A-AChBP [2] = biological target: T1, A-AChBP (Aplysia californica, UniProt Q8WSF8); test: Scintillation proximity assay, competition against [3H]methyllycaconitine binding to A-AChBP; parameters: made in house; host or cells: stably transfected HEK293S-GnTI- cells
Protocol: (§6) Equilibrium dissociation constants were determined either from ratios (Kd/(koff/kon)) of rate constants determined using multiple kinetic means (kon, koff, koff/GAL) or directly from stopped-flow measurements (Kd/SFeq, Kd/SPAeq) (see Experimental Procedures).
(§7) The procedures for stable expression and purification of A- and L-AChBPs are described in Appendix D. Rate constants for association (kon) and dissociation (koff) were determined by multiple kinetic means, largely as previously described. Measurement of kon and koff values entailed the direct admixture of reactants and monitoring the quenching of AChBP native Trp fluorescence. Individual rate constants were determined from linear regression of the experimental mono-exponential decay of Trp fluorescence intensity (kobs) using the linear “approach-to-equilibrium” relationship kobs = kon[spiroimine] + koff (Equation (3)). Additional measurements of koff (koff/GAL) employed stopped-flow measurement of the rate of occupation of free AChBP binding sites by a competing ligand (gallamine, used in large excess relative to its Kd) to form a non-quenching gallamine-AChBP complex. Equilibrium dissociation constants were determined either from the ratios of rate constants (Kd/(koff/kon)), or from stopped-flow measurements of the rates of gallamine or epibatidine binding to pre-equilibrated spiroimine-AChBP complexes formed using increasing spiroimine concentrations (Kd/SFeq), or by the scintillation proximity assay (SPA) where spiroimine competition against the binding of [^3H]epibatidine (to L-AChBP) or [^3H]methyllycaconitine (to A-AChBP) was monitored at equilibrium (Kd/SPAeq). […] The time course of [^3H]ligand binding was monitored over several hours.
(§8) A- and L-AChBP, flanked with an N-terminal FLAG epitope with residues numbered (-8)[…](0), were expressed as soluble, exported proteins using synthetic cDNA and stably-transfected HEK293S-GnTI^− cells selected for G418 resistance, and cultured in Dulbecco’s modified Eagle’s medium (MediaTech CellGro, Albany, NY, USA) containing fetal bovine serum (FBS) 2% (v/v). […]
Target sequence in this assay (Q8WSF8 entry or part of it): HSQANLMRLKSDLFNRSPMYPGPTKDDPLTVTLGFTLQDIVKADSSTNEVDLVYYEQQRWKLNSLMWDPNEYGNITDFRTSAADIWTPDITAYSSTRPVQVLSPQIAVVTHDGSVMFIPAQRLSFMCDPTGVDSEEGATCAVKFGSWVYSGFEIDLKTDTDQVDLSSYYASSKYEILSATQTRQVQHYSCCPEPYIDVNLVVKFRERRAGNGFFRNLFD

A-AChBP [3] = biological target: T1, A-AChBP; test: Stopped-flow Trp fluorescence kinetic and equilibrium binding to purified A-AChBP; details: for kon / koff / Kd: A-AChBP
Protocol: as §6, §7
(§9) A- and L-AChBP, flanked with an N-terminal FLAG epitope with residues numbered (-8)[…](0), were expressed as soluble, exported proteins using synthetic cDNA and stably-transfected HEK293S-GnTI^− cells selected for G418 resistance, and cultured in Dulbecco’s modified Eagle’s medium (MediaTech CellGro, Albany, NY, USA) containing fetal bovine serum (FBS) 2% (v/v). The conditioned medium was collected every 1–3 days for up to 4 weeks, supplemented with NaN3 0.02% (w/v) and stored at 4 °C. AChBPs were purified on immobilized anti-FLAG M2 antibody (Sigma-Aldrich) with elution using FLAG peptide 100 μg/mL in TRIS-HCl 50 mM pH 7.4, NaCl 150 mM, NaN3 0.02% (w/v). Purified proteins were dialyzed against the same buffer, concentrated by ultrafiltration, filtered on a 0.22 µm membrane, and stored on ice at 4 °C.
Target sequence in this assay (Q8WSF8 entry or part of it): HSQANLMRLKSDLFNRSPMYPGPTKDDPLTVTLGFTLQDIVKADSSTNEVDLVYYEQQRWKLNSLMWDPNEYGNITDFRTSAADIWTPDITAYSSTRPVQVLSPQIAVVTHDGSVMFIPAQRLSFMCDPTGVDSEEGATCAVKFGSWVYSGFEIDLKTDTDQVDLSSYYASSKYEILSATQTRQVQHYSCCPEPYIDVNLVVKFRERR

L-AChBP [4] = biological target: T2, L-AChBP (Lymnaea stagnalis, UniProt P58154); test: Scintillation proximity assay, competition against [3H]epibatidine binding to L-AChBP
T2 construct: made in house; host or cells: stably transfected HEK293S-GnTI- cells
Protocol: as §6, §7, §8

L-AChBP [5] = biological target: T2, L-AChBP; test: Stopped-flow Trp fluorescence kinetic and equilibrium binding to purified L-AChBP
Protocol: as §6, §7, §9

[6] = biological target: T3, human neuronal α4β2 nAChR (Homo sapiens, UniProt P17787+P43681); test: Automated TEVC recording of ACh-evoked currents in Xenopus oocytes expressing human α4β2 nAChR; format: cell-based; details: for recovery of the ACh-evoked current after washout of bound spiroimine: 10 µM spiroimine, wash; for Hill Slope: concentration-inhibition curve, ACh 150 µM; for Hill Slope / IC50: 95% confidence interval in parentheses; for IC50: inhibition of ACh-evoked current, ACh 150 µM (EC50), −60 mV
T3 construct: expressed in transfected cells; host or cells: Xenopus laevis oocytes; cDNAs in pRc/CMV vector
From the text: as §1, §2, §3, §4
(§10) Automated TEVC on α7 and α4β2 nAChR oocytes was performed using a HiClamp system (Multi Channel Systems, GmbH., Reutlingen, Germany). Oocytes free of follicular cells were transferred from the 96-wells of the oocyte microplate to a recording basket carrying the reference bath electrode. Oocytes were automatically impaled and clamped at a holding potential of −60 mV using borosilicate glass microelectrodes of 0.5–5 MΩ tip resistances, filled with a 1:1 (v/v) mixture of KCl 1 M and KAc 1 M. The clamped oocytes were exposed twice or thrice to ACh by incubation into a well containing ACh (at the EC50 for the assayed nAChR subtype) to obtain a control IACh peak amplitude. […]

human neuronal α7 nAChR = biological target: T4, human neuronal α7 nAChR (Homo sapiens, UniProt P36544); test: Automated TEVC recording of ACh-evoked currents in Xenopus oocytes expressing human α7 nAChR; format: cell-based; details: for Hill Slope: concentration-inhibition curve, ACh 100 µM; for Hill Slope / IC50: 95% confidence interval in parentheses; for IC50: inhibition of ACh-evoked current, ACh 100 µM (EC50), −60 mV
T4 construct: expressed in transfected cells; host or cells: Xenopus laevis oocytes
From the text: as §1, §2, §3, §4, §10

[7] = tested on: Torpedo muscle-type α1_2βγδ nAChR; test: Manual TEVC recording of ACh-evoked currents in Xenopus oocytes micro-transplanted with Torpedo electrocyte membranes; format: cell-based, Torpedo marmorata; details: from IC50 values
From the text: as §1, §2, §3, §4, §5

[8] = quenching of native Trp fluorescence
[9] = quenching of native Trp fluorescence, read-out: koff (converted)
[10] = stopped-flow with competing gallamine in large excess, read-out: koff/GAL (converted)
[11] = Kd/(koff/kon), calculated from the rate constants
[12] = Kd/SFeq, stopped-flow on pre-equilibrated complexes, single experiment in triplicate
[13] = L-AChBP, stopped-flow on pre-equilibrated complexes, single experiment in triplicate, read-out: Kd/SFeq

Sequence of Torpedo muscle-type α1_2βγδ nAChR (Torpedo marmorata, UniProt P02711+Q6S3H8+Q6S3H9) (P02711 25-461): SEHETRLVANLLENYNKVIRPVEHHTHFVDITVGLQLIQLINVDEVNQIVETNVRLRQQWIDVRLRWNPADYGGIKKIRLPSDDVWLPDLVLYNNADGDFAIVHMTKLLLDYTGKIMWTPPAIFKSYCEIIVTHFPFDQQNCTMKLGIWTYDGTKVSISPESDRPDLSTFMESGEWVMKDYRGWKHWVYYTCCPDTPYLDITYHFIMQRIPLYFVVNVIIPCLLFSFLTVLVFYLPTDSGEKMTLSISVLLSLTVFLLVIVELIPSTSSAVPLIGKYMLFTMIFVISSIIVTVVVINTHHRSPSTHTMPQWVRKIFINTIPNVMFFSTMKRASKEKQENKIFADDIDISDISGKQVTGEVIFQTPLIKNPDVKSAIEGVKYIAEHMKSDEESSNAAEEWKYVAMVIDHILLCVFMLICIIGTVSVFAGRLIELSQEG
Sequence of Torpedo muscle-type α1_2βγδ nAChR (Torpedo marmorata, UniProt P02711+Q6S3H8+Q6S3H9) (Q6S3H9 18-505): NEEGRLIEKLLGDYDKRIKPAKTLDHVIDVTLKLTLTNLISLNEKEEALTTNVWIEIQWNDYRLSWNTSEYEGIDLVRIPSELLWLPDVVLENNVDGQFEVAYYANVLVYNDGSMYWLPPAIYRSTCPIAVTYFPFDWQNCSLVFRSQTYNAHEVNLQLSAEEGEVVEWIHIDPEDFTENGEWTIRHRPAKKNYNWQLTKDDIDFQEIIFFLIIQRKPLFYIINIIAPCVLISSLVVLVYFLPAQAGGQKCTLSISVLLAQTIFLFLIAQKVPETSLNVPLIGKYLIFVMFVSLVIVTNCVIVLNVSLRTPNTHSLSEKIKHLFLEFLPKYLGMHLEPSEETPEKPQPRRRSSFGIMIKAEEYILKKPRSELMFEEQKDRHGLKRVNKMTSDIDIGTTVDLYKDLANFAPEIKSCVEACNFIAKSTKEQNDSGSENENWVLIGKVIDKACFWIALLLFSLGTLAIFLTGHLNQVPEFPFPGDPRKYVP
Sequence of Torpedo muscle-type α1_2βγδ nAChR (Torpedo marmorata, UniProt P02711+Q6S3H8+Q6S3H9) (Q6S3H8 22-522): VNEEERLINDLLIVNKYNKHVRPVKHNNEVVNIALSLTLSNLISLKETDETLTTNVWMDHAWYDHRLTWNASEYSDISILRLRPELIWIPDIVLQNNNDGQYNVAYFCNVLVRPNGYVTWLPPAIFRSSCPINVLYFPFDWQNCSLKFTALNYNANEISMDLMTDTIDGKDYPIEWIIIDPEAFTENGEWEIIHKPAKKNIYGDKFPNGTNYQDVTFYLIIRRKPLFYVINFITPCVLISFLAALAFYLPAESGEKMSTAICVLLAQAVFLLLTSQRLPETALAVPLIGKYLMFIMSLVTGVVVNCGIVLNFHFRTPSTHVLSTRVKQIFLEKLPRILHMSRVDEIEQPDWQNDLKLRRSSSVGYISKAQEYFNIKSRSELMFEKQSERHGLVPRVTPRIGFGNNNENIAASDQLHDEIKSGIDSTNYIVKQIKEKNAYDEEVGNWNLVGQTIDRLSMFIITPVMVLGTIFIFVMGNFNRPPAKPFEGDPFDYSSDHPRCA
Sequence of Torpedo muscle-type α1_2βγδ nAChR (Torpedo marmorata, UniProt P02711+Q6S3H8+Q6S3H9) (Q6S3I0 25-493 partner): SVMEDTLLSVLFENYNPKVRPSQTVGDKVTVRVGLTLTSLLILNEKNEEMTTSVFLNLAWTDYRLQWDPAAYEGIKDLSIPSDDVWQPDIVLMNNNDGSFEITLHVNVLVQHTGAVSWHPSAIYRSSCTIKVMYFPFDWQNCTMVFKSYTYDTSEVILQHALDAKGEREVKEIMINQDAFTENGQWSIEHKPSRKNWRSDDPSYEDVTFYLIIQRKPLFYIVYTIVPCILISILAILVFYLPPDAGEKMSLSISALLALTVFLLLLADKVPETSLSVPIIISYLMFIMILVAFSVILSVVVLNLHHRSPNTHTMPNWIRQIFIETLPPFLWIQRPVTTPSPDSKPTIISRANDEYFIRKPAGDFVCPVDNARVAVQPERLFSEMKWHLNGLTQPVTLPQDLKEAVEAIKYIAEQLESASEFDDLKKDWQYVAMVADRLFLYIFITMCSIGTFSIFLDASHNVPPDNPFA
T2 sequence (P58154 20-229): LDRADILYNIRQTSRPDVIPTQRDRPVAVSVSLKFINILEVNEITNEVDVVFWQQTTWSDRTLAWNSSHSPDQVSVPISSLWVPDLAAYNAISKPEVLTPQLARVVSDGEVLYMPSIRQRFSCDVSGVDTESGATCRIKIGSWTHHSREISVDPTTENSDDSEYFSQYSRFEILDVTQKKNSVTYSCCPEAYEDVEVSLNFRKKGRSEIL
T3 sequence (P43681 29-627 limits assumed): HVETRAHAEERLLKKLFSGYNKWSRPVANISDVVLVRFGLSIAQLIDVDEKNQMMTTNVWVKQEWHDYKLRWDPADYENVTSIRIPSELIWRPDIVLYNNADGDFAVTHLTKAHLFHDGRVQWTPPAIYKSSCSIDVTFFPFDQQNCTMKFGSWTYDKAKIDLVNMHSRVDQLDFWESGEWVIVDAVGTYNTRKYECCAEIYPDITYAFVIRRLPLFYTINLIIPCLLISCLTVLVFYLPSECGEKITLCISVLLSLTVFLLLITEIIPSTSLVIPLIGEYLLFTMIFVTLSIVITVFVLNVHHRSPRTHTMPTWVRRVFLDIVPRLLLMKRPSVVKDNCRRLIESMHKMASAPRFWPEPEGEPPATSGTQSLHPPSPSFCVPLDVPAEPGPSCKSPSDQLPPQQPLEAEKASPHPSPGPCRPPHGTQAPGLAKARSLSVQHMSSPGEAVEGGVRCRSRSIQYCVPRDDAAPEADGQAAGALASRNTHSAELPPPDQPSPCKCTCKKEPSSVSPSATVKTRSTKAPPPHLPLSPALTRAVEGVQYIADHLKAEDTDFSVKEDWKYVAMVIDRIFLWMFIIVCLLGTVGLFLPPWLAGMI
T3 sequence (P17787 26-502): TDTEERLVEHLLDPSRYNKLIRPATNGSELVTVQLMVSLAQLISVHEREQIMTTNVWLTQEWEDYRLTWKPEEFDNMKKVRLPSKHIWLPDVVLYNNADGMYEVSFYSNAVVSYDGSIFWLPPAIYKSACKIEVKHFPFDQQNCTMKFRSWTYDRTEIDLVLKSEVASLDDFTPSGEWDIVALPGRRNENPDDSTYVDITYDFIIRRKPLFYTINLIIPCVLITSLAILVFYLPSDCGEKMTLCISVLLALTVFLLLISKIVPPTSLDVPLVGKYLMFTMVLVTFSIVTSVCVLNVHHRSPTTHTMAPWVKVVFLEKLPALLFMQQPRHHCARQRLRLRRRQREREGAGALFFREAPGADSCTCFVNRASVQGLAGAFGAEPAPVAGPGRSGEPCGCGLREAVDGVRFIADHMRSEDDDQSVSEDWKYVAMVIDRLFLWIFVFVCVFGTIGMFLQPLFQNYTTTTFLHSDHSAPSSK
T4 sequence (P36544 23-502): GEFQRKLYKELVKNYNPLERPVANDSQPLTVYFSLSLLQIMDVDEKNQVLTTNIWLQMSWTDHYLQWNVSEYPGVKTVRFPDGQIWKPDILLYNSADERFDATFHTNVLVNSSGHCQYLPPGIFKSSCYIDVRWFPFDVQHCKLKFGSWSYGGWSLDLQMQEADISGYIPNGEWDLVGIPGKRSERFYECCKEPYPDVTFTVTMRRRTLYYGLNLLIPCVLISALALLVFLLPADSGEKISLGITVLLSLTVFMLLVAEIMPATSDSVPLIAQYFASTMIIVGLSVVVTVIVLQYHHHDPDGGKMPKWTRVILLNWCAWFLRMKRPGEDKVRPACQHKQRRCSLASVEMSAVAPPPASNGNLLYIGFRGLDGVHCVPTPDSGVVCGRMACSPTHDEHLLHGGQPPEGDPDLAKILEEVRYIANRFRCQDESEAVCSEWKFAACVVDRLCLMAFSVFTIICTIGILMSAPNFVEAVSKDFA

Structure (SMILES) | Hill Slope [1] | Kd (A-AChBP [2]) [µM] | kon (A-AChBP [3]; [8]) [M⁻¹ s⁻¹] | koff (A-AChBP [3]; [9]) [s⁻¹] | koff (A-AChBP [3]; [10]) [s⁻¹] | Kd (A-AChBP [3]; [11]) [µM] | Kd (A-AChBP [3]; [12]) [µM] | Kd (L-AChBP [4]) [µM] | Kd (L-AChBP [5]; [13]) [µM] | recovery of the ACh-evoked current after washout of bound spiroimine [6] | Hill Slope [6] | IC50 [6] [µM] | Hill Slope (human neuronal α7 nAChR) | IC50 (human neuronal α7 nAChR) [µM] | also measured
CC1=NCCCC12CCCCC21OCCO1 (racemic) [Racemic (±)-4, 7-methyl-1,4-dioxa-8-azadispiro[4.0.5.4]pentadec-7-ene] | ~1 ^b | 2.4 ± 1.5 | 1.05e+08 | 300 | 250 | 2.9 | 4.2 | 2.6 ± 1.9 | 0.32 | fast reversibility; also recorded: fast and complete | 1.08 (0.86–1.29) ^b | 6.96 | 0.61 (0.47–0.75) ^b | 2.11 | recovery of the ACh-evoked current after washout of bound spiroimine ([1]; 10 µM spiroimine, washout with ACh, desensitized state): full recovery of the nicotinic current; Kd (L-AChBP [5]; L-AChBP, calculated from the rate constants, read-out: Kd/(koff/kon)): 1.7 µM; kon (L-AChBP [5]; L-AChBP, quenching of native Trp fluorescence): 6e+07 M⁻¹ s⁻¹; koff (L-AChBP [5]; L-AChBP, quenching of native Trp fluorescence, read-out: koff (converted)): 103 s⁻¹; Kd (L-AChBP [5]; L-AChBP, stopped-flow on pre-equilibrated complexes, biphasic curve, read-out: Kd/SFeq, second constant from a biphasic curve): 15 µM; koff (L-AChBP [5]; L-AChBP, stopped-flow with competing gallamine in large excess, read-out: koff/GAL (converted)): 112 s⁻¹
CC1=NCCC[C@]12CCCCC21OCCO1 [Spiroimine (+)-4 R, 7-methyl-1,4-dioxa-8-azadispiro[4.0.5.4]pentadec-7-ene] | ~1 ^b | 2.3 ± 0.4 | 1.23e+08 | 267 | 233 | 2.2 | 3.1 | 12 ± 3 | 12 | fast and complete | 0.83 (0.15–1.52) ^b | 9.31 | 0.78 (0.54–1.01) ^b | 4.88 | selectivity for the α1_2βγδ nAChR compared with the α4β2 subtype [7]: 25 fold; selectivity for the α1_2βγδ nAChR compared with the α7 subtype [7]: 13 fold; higher affinity compared to enantiomer (−)-4 S (A-AChBP [3]; A-AChBP (text: the two AChBPs)): ca. 2 fold; higher affinity compared to enantiomer (−)-4 S (L-AChBP [5]; L-AChBP (text: the two AChBPs)): ca. 2 fold; Kd (L-AChBP [5]; L-AChBP, read-out: Kd values (range of magnitude)): ~10 µM; agonistic activity (nAChR channel opening) ([6]; spiroimine applied alone): elicited no inward current per se; higher affinity compared with the (−)-4 S enantiomer ([6]; α4β2 nAChR, from Table 1): ca. 5 fold; higher affinity compared with the (−)-4 S enantiomer (human neuronal α7 nAChR; α7 nAChR, from Table 1): ca. 5 fold
